Source: patent publication US20240251802A1, “USE OF SATIVENE, AND RECOMBINANT BIOCONTROL FUNGUS AND MUSCARDINE CADAVER AND USE THEREOF” (priority 2022, published 2024)
Entries after “also recorded” stand apart in the source; their conditions may differ.

Legend:
Format in all cases: in vivo
[1] = system: Galleria mellonella larvae; experiment: Improved Two-way choice method, attraction of Galleria mellonella larvae; settings: cotton balls with 100 μl solution vs n-hexane control, FIG. 3
Text: An improved Two-way choice method was used to detect the attraction of Galleria mellonella muscardine cadavers to Galleria mellonella healthy larvae, with the device shown in FIG. 1B. Three freeze-killed Galleria mellonella larvae (control) and three the resulting Galleria mellonella muscardine cadavers were placed in 9 cm petri dishes, and the petri dishes were placed diagonally in the device; 40 healthy Galleria mellonella larvae were released at the center point of the device, and placed at room temperature in dark. The selection of healthy Galleria mellonella larvae was recorded after 1 h. A Response index was calculated [the Response index=the number of Galleria mellonella larvae selecting Galleria mellonella muscardine cadavers−the number of Galleria mellonella larvae selecting freeze-killed Galleria mellonella larvae)/the total number of Galleria mellonella larvae]. The experiment was repeated 6 times.
(§1) The muscardine cadaver was replaced by circular filter paper with a 5 mm diameter (containing 10 μl of different concentrations solutions of longifolene or sativene), and a control was a filter paper containing 10 μl of n-hexane solvent. Similarly, the method for detecting the attraction of muscardine cadavers to Galleria mellonella larvae and mosquitoes adults was also used to analyze the attraction of longifolene and sativene to these two kinds of insects. […]

Drosophila larvae = experiment: Two-way choice method, attraction of Drosophila larvae; settings: FIG. 2A/2B; for concentration dependence of attraction on Drosophila larvae: content gradients 10^−5 g to 10^−11 g
Procedure: Two-way choice method was used to detect the attraction of Galleria mellonella muscardine cadavers to Drosophila healthy larvae, with the device shown in FIG. 1A. New freezing-killed Galleria mellonella larvae were kept at a room temperature for 20 min(control) and one of the resulting Galleria mellonella muscardine cadaver was placed on both sides of a 9 cm petri dish (containing 2% water agar), and then 20 healthy 3-instar Canton-S Drosophila larvae were placed in the middle part of the petri dish. After 10 min, photographing was conducted to record the selection of Drosophila larvae, and a Response index was calculated [the Response index=(the number of Drosophila larvae selecting Galleria mellonella muscardine cadaver−the number of Drosophila larvae selecting control Galleria mellonella larvae)/the total number of Drosophila larvae (20)]. The experiment was repeated 6 times.
as §1
(§2) According to the above device, the attraction of transgenic strain Mr-Tps and WT strain grown on PDA and on fermentation medium to mosquitoes was compared. The mycelia of transgenic strain Mr-Tps and WT strain grown on PDA and on fermentation medium for 14 d and with a fresh weight of 0.3 g were placed on both sides of the device, respectively, and a preference percentage was calculated after a period of treatment, where the preference percentage=the number of insects selecting mycelia of transgenic strain and WT strain/the total number of insects.

Aedes albopictus adults = experiment: Two-way choice method, attraction of adult mosquitoes; settings: for content with the strongest attraction on mosquitoes: content gradients 10^−5 g to 10^−9 g on cotton balls vs n-hexane control, FIG. 2C/2D
Procedure: The detection on attraction of muscardine cadavers to mosquito (Aedes albopictus) adults was conducted according to a relevant literature (Robinson Ailic, Busula Annette O, Voets Mirjam A, Beshir Khalid B, Caulfield John C. Powers Stephen J, Verhulst Niels O, Winskill Peter, Muwanguzi Julian, Birkett Michael A, Smallegange Renate C, Masiga Daniel K, Mukabana W Richard, Sauerwein Robert W, Sutherland Colin J, Bousema Teun, Pickett John A, Takken Willem, Logan James G, de Boer Jetske G. Plasmodium-associated changes in human odor attract mosquitoes. Proc Natl Acad Sci USA 2018; 115: 4215), and the device used was shown in FIG. 1D. One of freeze-killed Galleria mellonella larvae (control) and one of the resulting Galleria mellonella muscardine cadaver were placed in a 3.5 cm ampoule, and placed in cylinders on both sides of the device. 10 female mosquitoes without blood meal 3 d to 5 d after eclosion were placed in the middle of a tube 1. Openings at both ends of the tube 1 were covered with gauze, and the tube was placed in a refrigerator at 4° C. for 3 min to reduce mosquito activities. Then the tube 1 was connected to tubes 2 and 3. The whole device was placed in a dark incubator at 26° C., and the selection of mosquitoes was recorded after 10 h. A Response index was calculated [the Response index=the number of mosquitoes selecting Galleria mellonella muscardine cadavers−the number of mosquitoes selecting freeze-killed Galleria mellonella larvae)/the total number of mosquitoes].
as §1, with “insects. In the Galleria mellonella attractive device, the muscardine cadaver was replaced by cotton balls with about 2 cm diameter (containing 100 μl different concentrations solutions of longifolene or sativene), and a control was cotton balls containing 100 μl of n-hexane solvent.” for “insects.”
as §2

SMILES | attraction of Galleria mellonella larvae [1] | concentration dependence of attraction on Drosophila larvae (Drosophila larvae) | response of mosquitoes at 10^−9 g (Aedes albopictus adults; 10^−9 g, FIG. 2C) | content with the strongest attraction on mosquitoes (Aedes albopictus adults) | lowest level to which Drosophila larvae respond (Drosophila larvae; content gradients 10^−5 g to 10^−11 g on filter paper vs n-hexane control) | concentration dependence of attraction on mosquitoes (Aedes albopictus adults; content gradients 10^−5 g to 10^−9 g, FIG. 2D)
C=C1[C@H]2CC[C@@H]3[C@H]2C(C)(C)CCC[C@]13C [longifolene] | could also attract | a higher concentration of the longifolene and sativene had a stronger attraction | little response | 10^−6 g |  | 
C=C1C2CCC3C2C(C(C)C)CCC13C (stereo not drawn) [sativene] | has insect attracting properties; also recorded: could also attract | a higher concentration of the sativene has a stronger attracting effect; also recorded: a higher concentration of the longifolene and sativene had a stronger attraction |  | 10^−5 g | ≤ 10^−11 g | a higher concentration of the sativene has a stronger attracting effect; also recorded: a higher concentration of the sativene had a stronger attraction
